How the values were obtained:
[1] = cosmetic remover solution with parabens; cited from earlier work
[2] = use of the metabisulfite solution directly on human and animal patients (tolerability); type: in vivo; details: 0.020 to 0.035 percent by weight in water, on skin
Text: Additionally, the same solution is effective for removing stains elsewhere. The solutions of the present embodiments may be packaged for liquid application, such as in bottles, or sprays, or swabs.

[3] = Iodine stain removal, trial and error testing / actual usage
Text: In use, the desired level of concentration may be intentionally varied to correspond to anticipated situations. For instance, products that are directed towards general cleanup, such as flooring, or equipment, or linens, may be made at the higher ranges so as to ensure quick and complete neutralization of the Iodine. The higher concentrations serve also to overcome any associated soil or other materials that may impede the action of the sodium metabisulfite on the Iodine stains.

O=S([O-])S(=O)(=O)[O-].[Na+].[Na+] [sodium metabisulfite]
irritation or other adverse reactions in and about the eyes of users [1]: did not contribute to any irritation or other adverse reactions | deleterious effects or irritation to the patient [2]: does not show any deleterious effects or irritation | effectiveness in eliminating Iodine staining ([3]; 0.020 to 0.035 percent by weight in water): highly effective

O=S([O-])([O-])=S.[Na+].[Na+] [sodium thiosulfate, reference compound]
effectiveness of Iodine stain removal compared to modest aqueous solutions of sodium metabisulfite ([3]; sodium thiosulfate in an alkaline detergent type matrix, actual usage): weak

Source: patent US20070092464A1, “Betadine neutralizer” (priority 2005, published 2007)
